From patent publication US20020031818A1, “Modification of Mdm2 activity” (priority 2000, published 2002)

Legend:
Mdm2 [1] = assay: In vivo ubiquitination of Mdm2 in EJ cells (HA-Ub, Mdm2 immunoprecipitation); format: cell-based, mouse
Excerpt: FIG. 14A-14E. A. In vitro ubiquitination of Mdm2 is inhibited by p19^ARF. GST-Mdm2 was subjected to an in vitro ubiquitination reaction using purified forms of E1, E2 and Ub-HA in the presence of ATP. Addition of bacculovirus-purified p19^ARF at the indicated concentrations blocked Mdm2 ubiquitination. Glutathione bead-coupled GST-Mdm2 in its ubiquitinated or non-ubiquitinated forms was washed and analyzed on immunoblots using antibodies to HA (upper panel). Middle panel depicts the level of Mdm2 expression and the lower panel, the level of p19^ARF added to the reaction. B. p19^ARF expression increases Mdm2 self-ubiquitination in EJ cells. EJ cells were transfected with the indicated plasmids. Cells were harvested 36 h later and proteins ([…]) were immunoprecipitated using Mdm2 antibodies (2A10). Immunoprecipitated material was washed and proteins loaded onto 10% SDS-PAGE, followed by immunoblot analysis with HA-antibodies to detect covalent HA-ubiquitin conjugation to Mdm2 (upper panel). Middle panel depicts level of immunoprecipitated Mdm2. Lower panel represents western analysis of p19^ARF expression levels. C. In vitro ubiquitination of Mdm2 in the presence of p19^ARF and protein extracts. […] The level of p53 immunoprecipitated was monitored in immunoblots using polyclonal antibodies to p53 (middle). […]

Mdm2 [2] = assay: 35S pulse-chase half-life of Mdm2 forms in p53/Mdm2 double null cells; format: cell-based, human; conditions: lactacystin 25 μM
Description: C. p53/Mdm2 double null cells were transfected with the wt or K1 forms of Mdm2 and 24 h later were subjected to pulse chase labeling with ^35S-methionine in the absence or presence of lactacystin (25 μM) as indicated in Figure. Proteins prepared at the indicated time-points were immunoprecipitated using monoclonal antibodies to Mdm2 followed by autoradiography.
p53/Mdm2 double null cells were transfected with wt or K1 forms of Mdm2 expression vectors (4 μg). ^35S-methionine (1 mCi) was added to the cell cultures 24 h after transfection for 5 hr (pulse) followed by chase (2 mM cold methionine) for the indicated time-points. Protein extracts (1 mg) were used for immunopurification of Mdm2 using mixture of monoclonal antibodies (2A-10/3 F1). Immunoprecipitated Mdm2 was washed, separated on 10% SDS-PAGE and analyzed by autoradiography.

p53-mediated apoptosis = assay: Apoptosis assay (DNA fragmentation, flow cytometry) in Mdm2/p53 double null cells; format: cell-based; conditions: co-expression with p53 in Mdm2/p53 double null cells
Description: FIGS. 5A-5D. Mdm2 sumoylation or mutation on Lys446 increases p53 ubiquitination and degradation and decreases p53 ability to mediate apoptosis. […] WCE was immunoprecipitated using monoclonal p53 antibodies. […] B. Ubiquitinated Mdm2 is less efficient in targeting the ubiquitination of p53. Bacterially expressed Mdm2 ([…]) was subjected to in vitro ubiquitination (self ubiquitination) in the presence of E1 [45 ng], E2 UbcH5b [1.5 μg] and ubiquitin [3 μg; SIGMA] and […] in ubiquitination buffer for the 0, 2, or 3 h (to ensure efficient self-ubiquitination) as indicated in Figure. To monitor the degree of Mdm2's ability to target the ubiquitination of p53, equal amounts of the self-ubiquitinated Mdm2 were extensively washed with TBS/0.5% Triton X-100 before incubated with bacculovirus-expressed and purified form of HA-tagged p53 for 2 h in the presence of E1, E2 and ubiquitin. The degree of p53 ubiquitination was monitored via immunoblot analysis using antibodies to HA. C. […]
Mdm2/p53 double null cells were transfected with Mdm2 constructs (as indicated) and marker plasmid encoding Green Fluorescent Protein, pEGFP (1 μg). […] The percentage of cells to the left of the diploid G0/1 peak, characteristic of hypodiploid cells, was calculated as the percentage of apoptotic cells.

Molecule: C[S+]([O-])c1ccc(-c2nc(-c3ccncc3)c(-c3ccc(F)cc3)[nH]2)cc1 (centres unmarked) [SB203580]
- p19ARF-mediated Mdm2 ubiquitination in inhibitor-treated cells (Mdm2 [1]; EJ cells with Flag-Mdm2, p19ARF, HA-Ub, PD 98059 50 μM, SB203580 10 and 100 μM, LY294002 50 μM, Herbimycin 1 μM): capable of attenuating p19^ARF-mediated Mdm2 ubiquitination
- increase in Mdm2 ubiquitination after UV treatment in inhibitor-pretreated cells (Mdm2 [1]; SB203580 10 μM or LY294002 50 μM, 2 h prior to harvest): attenuated

Molecule: CC(=O)N[C@@H](CSC(=O)[C@]1([C@@H](O)C(C)C)NC(=O)[C@H](C)[C@@H]1O)C(=O)O [lactacystin]
- effect on half life of K1 form of Mdm2 (Mdm2 [2]; K1 expressing cells): remained unchanged
- effect on half-life of p75 and p90 forms of Mdm2 (Mdm2 [2]; wt Mdm2 transfected cells): prolonged the half-life of both p75 and p90

Molecule: K1: Mdm2 mutant with lysine 446 substituted for arginine
- decrease in p53-induced apoptosis (cell death) compared with wt Mdm2 (p53-mediated apoptosis): greater decrease in degree of cell death
